From US20250090510A1, “eIF4G1-eIF1 INHIBITORS AND USE THEREOF” (YEDA RESEARCH AND DEVELOPMENT CO. LTD., priority 2022, published 2025)

Tests used:
human blood cells = test: Effect on host blood cells in the parasitemia assay; conditions: i14G1-10 20 uM, i14G1-12 10 uM; 1 hour
Description: Parasitemia assay. The NF54 strain of the Plasmodium falciparum was used for the Survival test. Parasites were grown in RPMI medium pH 7.4, 25 mg/ml HEPES, 50 μg/ml hypoxanthine, 2 mg/ml sodium bicarbonate, 20 μg/ml gentamycin, and 0.5% (w/v) Albumax II (Invitrogen). Pooled donor red blood cells, provided by the Israeli blood bank, at 4% hematocrit, and incubated at 37° C. in a gas mixture of 1% 02, 5% CO2 in N2 were used.
Parasitaemia levels were measured 24 hours later.

HEK293T cells = test: TCP-seq (translation complex profiling) of 48S footprints; format: cell-based, human; conditions: 5 μM, one hour
Description: FIGS. 9A-H: Inhibition of eIF1-eIF4G1 leads to 48S instability and scanning defect (9A) Polysome profiles of HEK293T cells treated with DMSO or i14G1-12 after crosslinking with formaldehyde, lysis and Rnase I digestion. The grey layer represents the fractions corresponding to the 40S ribosome used for the TCP-seq library preparation. (9B) Heatmap representing the log 2 mean of the relative number of reads mapping to the individual tRNAs in i14G1-12 over DMSO (n=3). The number of reads was normalized to the codon frequency in the human transcriptome. (9C) Volcano plot showing log 2 fold change (FC) of the abundance of each tRNAs comparing i14G1-12 over DMSO with FDR <0.05 and a log 2 FC threshold of 1. (9D) Histograms showing the relative number of reads mapping to mRNA in DMSO vs. i14G1-12. (9E) Metagene plots of normalized ribosome footprints (RPFs) counts on leader region. Numbers indicate the slope of the regression lines. (9F) Volcano plot showing log 2 fold change of the differential initiation analysis in i14G1-12 over DMSO. […] (9G) Bar chart of the relative number of reads mapping to each mRNA feature in DMSO and i14G-12.
FIGS. 10A-J: Definition of leaky scanning and its regulation by specific mRNA features and eIF1-eIF4G1. (10A) Metagene plots of normalized ribosome footprints (RPFs) counts on CDS region. (10B) Scatter plot representing the leaky scanning score (LS) of transcripts in i14G1-12 versus DMSO. Transcripts with a significant LS (FDR <0.05) in DMSO and i14G1-12 are highlighted. […] (10D) Boxplots of the leaky scanning score in DMSO and in i14G1-12. […] (10F) Plot of the mean GC content in a 20 nt window around the start codon of leaky and non-leaky transcripts in DMSO and i14G1-12. (10G) Boxplot representing the log 5′ UTR length of leaky and non-leaky transcripts in DMSO and i14G1-12.
HEK293T cells were grown to 90% confluence at 37° C. in a humidified incubator supplemented with 5% CO2. Cells were treated with DMSO or 5 μM i14G1-12 for 1 hour. After treatment, cells were directly removed from the incubator and treated with 0.15% formaldehyde for 10 min on ice with slow shaking. The reaction was stopped by adding 37.5 mM glycine for 5 minutes. Media was aspirated and the plates were washed with cold PBS. Cells were lysed with fresh lysis buffer (100 mM KCl, 20 mM Tris-HCl pH 8, 1.5 mM MgCl2, 1.5% (v/v) NP-40, 2 mM DTT) supplemented with protease inhibitor for 20 min in a cold room with slow agitation. Lysates were clarified by centrifugation at 20,000 g. RNA amount was quantified by nanodrop. 10% of the lysate was kept and snap freeze for total RNA extraction. Digestion was performed by the addition of 0.0075 U Rnase I per μg of RNA to the lysate for 30 min at room temperature. Digestion was stopped by adding a Super RNase inhibitor (ThermoFischer). Lysates were loaded onto a 5-45% sucrose gradient (100 mM KCl, 20 mM HEPES pH 7, 5 mM MgCl2, 2 mM DTT) and centrifuged at 39000 rpm for two hours and forty-five minutes in an SW41 rotor at 4° C. Gradients were analyzed through a UV lamp (254 nm) and an Absorbance detector while being fractionated in 250 μL fractions using a Foxy Junior Fraction Collector (Isco).
RNA from the undigested extract and the sucrose gradient fractions corresponding to the 40S were extracted by addition of 1 mL or one volume of TRIzol respectively. Samples were heated at 65° C. for 15 minutes and vortexed every five minutes. Extraction was continued by addition of chloroform and alcohol precipitation of the aqueous phase. RNA-seq libraries were prepared with the TruSeq stranded RNA Library Prep (Illumina). TCP-seq libraries were prepared as described herein by selecting footprints reads with a length ranging from 16 nt to 85 nt. Libraries were sequenced at the iGE3 Genomic Platform (UNIGE) on a Hiseq 4000. […]

Row | SMILES | effect on human blood cells (human blood cells) | iMet tRNA abundance in 48S fractions (HEK293T cells; relative to DMSO) | number of reads mapping to mRNAs (HEK293T cells; relative to DMSO) | number of leaky genes (LS >3) (HEK293T cells; DMSO n=637) [genes] | number of non-leaky genes (LS<−3) (HEK293T cells; DMSO n=1223) [genes] | number of downregulated differentially scanned genes (HEK293T cells; log 2 FC threshold 1, FDR 0.05) [genes] | number of upregulated differentially scanned genes (HEK293T cells; log 2 FC threshold 1, FDR 0.05) [genes]
1 | O=C(/C=C/Sc1ccc(C(F)(F)F)cn1)c1ccccc1 [i14G1-10] | not adversely affected |  |  |  |  |  | 
2 | Cn1ccnc1S/C(=C/C=C(C#N)C#N)c1ccc(Cl)cc1 [i14G1-12] |  | most downregulated tRNA | significantly decreased | 1266 | 325 | 476 | 10
